Source: patent US12582649B2, “Compositions and methods for hair follicle regeneration” (Washington University, priority 2020, dated 2026)
Entries after “also recorded” stand apart in the source; their conditions may differ. One block for each compound: values may come before it.

What was measured:
[1] = tested on: hair follicle keratinocytes; assay: Ki67 immunofluorescence staining of back skin sections (proliferation of hair follicle keratinocytes and stem cells); format: in vivo; conditions: Trpv4+/+ mice, 48 h after single intradermal injection, vs vehicle
Description: (§1) The second telogen of C57BL/6J mice starts at day 49 after birth and it will last around 5 weeks (Muller-Rover et al., 2001). On day 48 after birth, the mice were shaved. On day 49 after birth, wt and Trpv4^−/− mice were intradermally injected with 30-μM GSK1016790A (GSK101, a selective TRPV4 agonist) (50 μl), which is diluted in saline from the 100 mM stock solution. GSK2193874 (GSK219, a selective TRPV4 antagonist) (25 mg·kg^−1, 200 μl dilution in saline from 50 mg·ml^−1 stock solution) (Thorneloe et al., 2012) or PD98059 (10 mg·kg^−1, 200 μl dilution in saline from 37.5 mg·ml^−1 stock solution) was applied through intraperitoneal injection on day 48 after birth or 1 hour prior to GSK1016790A injection. Insulin syringes with 30-G needle (UltiCare) were used for intradermal injection and 1-ml Sub-Q syringes with 26-G needle (BD) were used for intraperitoneal injection. […] In mice with newly generated hair, generally, there was a small patch of skin with dark color and longer hair shaft at the injection sites compared with that in the surrounding area.
Dorsal skin samples were fixed overnight at 4° C. in Zamboni's fixative (2% paraformaldehyde, 15% [v/v] saturated picric acid, 0.1-M PB, pH 7.3), dehydrated in ethanol, embedded in paraffin and sectioned at 10 μm. […]

hair follicles [2] = assay: Topical application on tape-stripped shaved back skin, hair growth; format: in vivo, mice
Description: FIG. 10. […] Images were taken on day 12 after GSK101 treatment.
A TRPV4-dependent increase in hair growth was observed (FIG. 10).
Tape stripping was used to remove the stratum corneum to facilitate GSK101 entry into the skin. The agent can be applied with no additional agent or skin treatment method. The effect was removed by genetic ablation of the TRPV4 function.

[3] = tested on: Bmp6, Fgf18, Fgf7, Wnt16 and Nog mRNA; assay: Quantitative RT-PCR of whole skin lysates for anagen-inhibiting and anagen-promoting factors; format: in vivo, mice
Description: (§2) The second telogen of C57BL/6J mice starts at day 49 after birth and it will last around 5 weeks (Muller-Rover et al., 2001). On day 48 after birth, the mice were shaved. On day 49 after birth, wt and Trpv4^−/− mice were intradermally injected with 30-μM GSK1016790A (GSK101, a selective TRPV4 agonist) (50 μl), which is diluted in saline from the 100 mM stock solution. GSK2193874 (GSK219, a selective TRPV4 antagonist) (25 mg·kg^−1, 200 μl dilution in saline from 50 mg·ml^−1 stock solution) (Thorneloe et al., 2012) or PD98059 (10 mg·kg^−1, 200 μl dilution in saline from 37.5 mg·ml^−1 stock solution) was applied through intraperitoneal injection on day 48 after birth or 1 hour prior to GSK1016790A injection. Insulin syringes with 30-G needle (UltiCare) were used for intradermal injection and 1-ml Sub-Q syringes with 26-G needle (BD) were used for intraperitoneal injection. Seventeen days after GSK1016790A injection, the mice were killed and the skin samples of the injection area were collected for analysis. In mice with newly generated hair, generally, there was a small patch of skin with dark color and longer hair shaft at the injection sites compared with that in the surrounding area.
For real-time PCR, skin sample was collected 24 h after GSK1016790A injection. Total RNA was extracted from mouse skin tissue using RNeasy kit (Qiagen, Germantown, MD, […]) according to the manufacturer's instructions. RNA was treated with DNase I (Invitrogen, Carlsbad, CA, USA), and the cDNA was synthesized in vitro using ThermoScript® RT-PCR System kit (Invitrogen). Reactions were carried out in a volume of 20 μl per reaction containing 10-μl SYBR Green master mix (2×) (Roche, Indianapolis, IN, USA), 0.5-μl cDNA, 1.2-μl 5-μM primer mix, and 8.3-μl water using StepOnePlus real-time PCR system (Applied Biosystems, Foster City, CA, USA). Relative expression of genes was normalized to GAPDH and calculated using the 2^−ΔΔct methods.

ERK1/2 = ERK1/2 phosphorylation in skin (western blot, immunofluorescence); format: in vivo, mice; conditions: for effect of pretreatment on GSK1016790A-induced ERK1/2 phosphorylation: intraperitoneal pretreatment one hour before GSK1016790A, skin harvested 15 min after
Description: as §1
(§3) Dorsal skin samples were fixed overnight at 4° C. in Zamboni's fixative (2% paraformaldehyde, 15% [v/v] saturated picric acid, 0.1-M PB, pH 7.3), dehydrated in ethanol, embedded in paraffin and sectioned at 10 μm. Haematoxylin and eosin (H&E) staining was performed according to standard protocols to analyze the hair follicle cycle stages as described, including the length of the hair follicle, the size, and location of dermal papilla and the position of the hair shaft and the inner root sheath (Muller-Rover et al., 2001). For immunofluorescence detection, sections were deparaffinized, rehydrated, and subjected to antigen retrieval in 10-mM citrate buffer (pH 6.0). […]
The skin was lysed in RIPA lysis and extraction buffer (Thermo Fisher Scientific, USA). Following cell protein quantitation, 10 μg of protein per sample were subjected to 12% SDS-PAGE. […]

[4] = tested on: cultured human hair follicles; conditions: cultured human hair follicles ex vivo; cited from earlier work
hair follicles [5] = assay: Hair follicle regeneration / new hair growth after a single intradermal injection in telogen back skin; format: in vivo, mice
Description: as §2
Dorsal skin samples were fixed overnight at 4° C. in Zamboni's fixative (2% paraformaldehyde, 15% [v/v] saturated picric acid, 0.1-M PB, pH 7.3), dehydrated in ethanol, embedded in paraffin and sectioned at 10 μm. Haematoxylin and eosin (H&E) staining was performed according to standard protocols to analyze the hair follicle cycle stages as described, including the length of the hair follicle, the size, and location of dermal papilla and the position of the hair shaft and the inner root sheath (Muller-Rover et al., 2001). For immunofluorescence detection, sections were deparaffinized, rehydrated, and subjected to antigen retrieval in 10-mM citrate buffer (pH 6.0). After blocking, sections were stained with primary antibody against Ki67 (1:1,000; Thermo Fisher Scientific, Cat #PA1-29503, RRID: AB_1955602), phosphop-p44/42 MAPK (1:200; Cell Signaling Technology, Cat #4370S, RRID: AB_2315112), p44/42 MAPK (1:1,000; Cell Signaling Technology, Cat #4695, RRID: AB_390779), keratin 14 (1:1,000; BioLegend, […], RRID: AB_2616962) and keratin 15 (1:1,000; BioLegend, Cat #833901, RRID: AB_2564970) at 4° C. overnight in a humid chamber, followed by incubation for 1 h at room temperature (RT) with Cy3-conjugated secondary antibody (1:500; Jackson ImmunoResearch, Cat #111-005-003, RRID: AB_2337913) and Alexa Fluor 488-conjugated secondary antibody (1:500; Jackson ImmunoResearch, Cat #703-005-155, RRID: AB_2340346). Nuclei were stained with DAPI (SouthernBiotech). The Immuno-related procedures used comply with the recommendations made by the British Journal of Pharmacology Alexander et al., 2018.

[6] = tested on: human epidermal keratinocytes HaCaT cells; conditions: cited from earlier work
TRPV4 = molecular target: T1, TRPV4 (Mus musculus, UniProt Q9EPK8); assay: Normal hair follicle cycling under pharmacological inhibition of TRPV4 (H&E of back skin); format: in vivo; conditions: Trpv4+/+ mice treated with GSK219
T1 construct: back skin sections from Trpv4^+/+ mice, Trpv4^+/+ mice treated with GSK219 and Trpv4^−/− mice; from tissue; host or cells: back skin of living wild-type C57BL/6J (Trpv4+/+) mice
T1 sequence (Q9EPK8 whole entry): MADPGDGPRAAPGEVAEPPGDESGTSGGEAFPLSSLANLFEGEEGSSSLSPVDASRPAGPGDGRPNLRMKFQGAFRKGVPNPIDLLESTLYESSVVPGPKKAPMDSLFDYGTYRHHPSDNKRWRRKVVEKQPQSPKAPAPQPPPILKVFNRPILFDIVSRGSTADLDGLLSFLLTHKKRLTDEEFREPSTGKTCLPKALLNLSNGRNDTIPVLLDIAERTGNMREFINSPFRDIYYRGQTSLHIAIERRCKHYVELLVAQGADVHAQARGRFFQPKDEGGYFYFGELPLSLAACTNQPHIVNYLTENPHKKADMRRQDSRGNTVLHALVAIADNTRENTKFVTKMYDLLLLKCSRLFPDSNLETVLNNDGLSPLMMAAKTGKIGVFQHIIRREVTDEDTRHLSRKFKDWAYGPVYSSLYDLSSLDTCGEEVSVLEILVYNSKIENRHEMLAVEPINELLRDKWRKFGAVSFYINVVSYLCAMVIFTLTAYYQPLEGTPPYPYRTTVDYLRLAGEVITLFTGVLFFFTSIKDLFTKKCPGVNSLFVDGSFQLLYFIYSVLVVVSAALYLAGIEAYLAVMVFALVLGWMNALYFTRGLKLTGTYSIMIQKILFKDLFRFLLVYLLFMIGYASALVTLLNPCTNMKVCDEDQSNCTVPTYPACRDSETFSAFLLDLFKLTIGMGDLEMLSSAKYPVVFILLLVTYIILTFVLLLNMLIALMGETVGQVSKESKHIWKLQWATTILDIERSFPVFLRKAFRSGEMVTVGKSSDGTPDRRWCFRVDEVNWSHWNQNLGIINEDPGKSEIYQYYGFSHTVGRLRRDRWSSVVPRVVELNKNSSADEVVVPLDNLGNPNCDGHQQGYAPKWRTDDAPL
Description: FIG. 6. Top: hair growth cycle in mice. Bottom: representative images of hematoxylin and eosin (H&E) staining of back skin sections from Trpv4^+/+ mice, Trpv4^+/+ mice treated with GSK219 and Trpv4^−/− mice on Day 15, 21, 36, 40, 49. Scale bar=100 μm.
as §3

[7] = Cre+ K14Cre, Trpv4f/f mice vs wt
[8] = Cre+ K14Cre, Trpv4f/f mice, after injection
[9] = Trpv4+/+ mice, whole skin, 24 h after injection

SMILES: CC(C)C[C@H](NC(=O)c1cc2ccccc2s1)C(=O)N1CCN(C(=O)[C@H](CO)NS(=O)(=O)c2ccc(Cl)cc2Cl)CC1 [GSK1016790A, N-((1S)-1-{[4-((2S)-2-{[(2,4-dichlorophenyl)sulfonyl]amino}-3-hydroxypropanoyl)-1-piperazinyl]carbonyl}-3-methylbutyl)-1-benzothiophene-2-carboxamide]
number of Ki67-positive K14-expressing hair follicle keratinocytes [1]: significantly increased; also recorded: increase
number of Ki67-positive K15-expressing hair follicle stem cells in the bulge [1]: increased number; also recorded: increase
hair growth after topical application (hair follicles [2]; 100 μM applied once, tape stripping of shaved back, day 12, vs vehicle): facilitate hair growth; also recorded: increased hair growth
hair growth effect of topical application under genetic ablation of TRPV4 function (hair follicles [2]; TRPV4 ablated mice, tape stripping): removed
Bmp6 mRNA expression level ([3]; Cre+ K14Cre, Trpv4f/f mice): did not affect
Fgf18 mRNA expression level ([3]; Cre+ K14Cre, Trpv4f/f mice): did not affect
Fgf7 expression compared with wt mice injected with GSK1016790A [3, 7]: significantly decreased
Nog expression compared with wt mice injected with GSK1016790A [3, 7]: significantly decreased
Wnt16 expression compared with wt mice injected with GSK1016790A [3, 7]: significantly decreased
Fgf7 expression [3, 8]: still increased
Nog expression [3, 8]: still increased
Wnt16 expression [3, 8]: still increased
Bmp6 mRNA transcripts [3, 9]: significant decrease
Fgf7 mRNA transcripts [3, 9]: markedly increased
Fgf18 mRNA transcripts [3, 9]: significant decrease
Nog mRNA transcripts [3, 9]: markedly increased
Wnt16 mRNA transcripts [3, 9]: markedly increased
GSK1016790A-induced changes in Bmp6, Fgf18, Fgf7, Wnt16 and Nog expression under genetic ablation of TRPV4 ([3]; Trpv4−/− mice, 30 μM intradermal, 24 h): significantly attenuated
ERK1/2 phosphorylation (ERK1/2; 15 min after a single intradermal injection, skin at injection site): significantly increased
number of apoptotic cells [4]: increased
ratio of proliferating cells [4]: decreased
new hair growth (newly generated hair coat) at the injection site (hair follicles [5]; 7-week-old wt (Trpv4+/+) mice, single intradermal injection (30 μM, 50 μl), 17 days after injection, vs vehicle): newly generated hair coat could be clearly observed at the injection site in a dose-dependent manner; also recorded: persistently induced hair growth
hair regeneration in macrophage-specific TRPV4 conditional KO mice (hair follicles [5]; Cx3cr1Cre, Trpv4f/f mice vs Cre− wt littermates, single intradermal injection): comparable hair regeneration
hair regeneration in keratinocyte-specific TRPV4 conditional KO mice (hair follicles [5]; K14Cre, Trpv4f/f mice, single intradermal injection): completely absent
GSK1016790A-induced hair regeneration in global TRPV4 KO mice (hair follicles [5]; Trpv4−/− mice, single intradermal injection): completely absent
hair follicle elongation (hair follicle length) (hair follicles [5]; wt mice, single intradermal injection, H&E of back skin, vs vehicle): more than fourfold
hair cycle stage of hair follicles (hair follicles [5]; wt mice, single intradermal injection, vehicle: telogen or anagen I): most of the hair follicles had entered anagen Ill-VI phases
membrane currents ([6]; HaCaT cells (PMID: 29293584)): activated membrane currents
IL-6 production ([6]; HaCaT cells (PMID: 30022772)): induced
IL-8 production ([6]; HaCaT cells (PMID: 30022772)): induced

normal transition of first telogen to second anagen (TRPV4): no effect
SMILES: O=C(NC1(c2ccccc2)CC1)c1c(CN2CCC(N3CCCCC3)CC2)c(-c2cccc(C(F)(F)F)c2)nc2cc(Br)ccc12 [GSK2193874]
effect of pretreatment on GSK1016790A-induced changes in Bmp6, Fgf18, Fgf7, Wnt16 and Nog expression ([3]; GSK2193874 pretreatment, Trpv4+/+ mice): significantly attenuated
effect of pretreatment on GSK1016790A-induced ERK1/2 phosphorylation (ERK1/2): severely attenuated
effect of pretreatment on GSK1016790A-induced hair regeneration (hair follicles [5]; GSK2193874 25 mg·kg−1 intraperitoneal pretreatment, wt mice): completely abolished

SMILES: COc1cccc(-c2cc(=O)c3ccccc3o2)c1N [PD98059]
effect of pretreatment on GSK1016790A-induced decrease of Bmp6 and Fgf18 and increase of Fgf7, Wnt16 and Nog expression ([3]; PD98059 pretreatment vs vehicle control): completely reversed
effect of pretreatment on GSK1016790A-induced ERK1/2 phosphorylation (ERK1/2): severely attenuated
hair growth after GSK1016790A injection in pretreated mice (hair follicles [5]; PD98059 10 mg·kg−1 intraperitoneal pretreatment, 17 days after GSK1016790A injection): completely absent
